Results on nine compounds are retold here after US6303761A, “Triaminepentaacetic acid compound and paramagnetic metal complex prepared from using the compound as ligand” (Department of Health The Executive Yuan, Republic of China, priority 1999, dated 2001).

For series [1] the following is noted: cited from earlier work.
The nature of series [2]: Relaxivity R1 and its pH dependence. The note with it: pH 6.3 ± 0.1.
The format of series [3] is physicochemical. The note with it: pH 7.4, plasma concentrations of Ca^2+, Cu^2+ and Zn^2+.
For series [4] the following is noted: cited from earlier work; for LD50: in vivo.
A short description of series [5]: Inner-sphere water molecules (Dy(III)-induced ^17 O-NMR chemical shift, X-ray, deduction). The series is classed as physicochemical. As to the method: The chemical shift (d.i.s.) of the Dy(III)-induced ^17 O is determined by ^17 O-NMR. The relationship between the Dy(III) complex concentration and d.i.s. is shown in equation (14)
d.i.s.=qΔ[Dy(ligand)n ](H2 O)q /[H2 O] (14)
The slope of equation (14) is qΔ/[H2 O], and q refers to the inner-sphere water molecule. […] It is known that Dy(III) can bind with eight water molecules at low concentration, and q is in a linear relationship with the slope.

Series [6] can be described thus: pM value, Zn^2+. To be noted: pH 7.4, TL 1.1×10^-5, TM 1.0×10^-6 mol dm^-3.
Series [7] in a line: pM value, Cu^2+. The note with it: pH 7.4, TL 1.1×10^-5, TM 1.0×10^-6 mol dm^-3.
A short description of series [8]: pM value, Gd^3+. The note with it: pH 7.4, TL 1.1×10^-5, TM 1.0×10^-6 mol dm^-3.
A short description of series [9]: pM value, Ca^2+. The note with it: pH 7.4, TL 1.1×10^-5, TM 1.0×10^-6 mol dm^-3.
Series [10] is described as follows: Thermodynamic and conditional stability constants of the Cu^2+ complexes (potentiometric titration, program BEST). To be noted: 25.0 ± 0.1° C., aqueous Me4 NNO3, I = 0.10 mol dm^-3. The series is classed as physicochemical. As to the method: (§1) The pH electrode was calibrated using two standard buffer solutions with pH 7.0±0.05 and pH 4.0±0.05 respectively. The ionic strength was 0.10 mol dm^-3 Me4 NNO3 ((CH3)4 NNO3). […] The titrant used was 0.1 mol dm^-3 NaOH with a titration amount of 0.005 ml/time.
(§2) (1) Direct Potentiometric Titration: The metal ion and ligand is mixed in 1:1 molar ratio.
(§3) (2) Ligand-ligand Competition Titration: The metal ion, ligand, and EDTA is mixed in 1:1:1 molar ratio.
(§4) M: metal ion, L: organic ligand, ML: metal complex The conditional stability constant is defined by equation (2): [formula]
(§5) The relationship between the conditional stability constant and the thermodynamic stability constant is defined by equation (3): [formula]
(§6) K2^H [H^+ ]^2 + . . . }^-1 =KthermαH

A short description of series [11]: Species distribution of the ligands at various pH values (SPE, SPEPLOT). The note with it: 7.0×10^-3 mol dm^-3 system. The series is classed as physicochemical. An excerpt: The average difference between observed and calculated -log[H^+ ] was <0.04 throughout all titrations.
When pH=7.0, the concentration of [H2 L]^3- is the maximum (97.5%). In the pH 3-5 range, the dominant species is the third protonated species [H3 L]^2-. When pH=3.7, the concentration of [H3 L]^2- is the maximum (87.75%). […] When pH=9.8, the concentration of [HL]^4- is the maximum (77.5%). In the pH 2-3 range, the dominant species is the fourth protonated species [H4 L]^-. When pH=2.3, the concentration of [H4 L]^- is the maximum (60.9%). In the pH range greater than 11, the dominant species is the deprotonated species [L]^5-.
When pH=2.7, the concentration of [H4 L]^- is the maximum (55.9%). In the pH 3.5-7 range, the dominant species is the third protonated species [H3 L]^2-. When pH=5, the concentration of [H3 L]^2- is the maximum (97.7%). In the pH 7-9 range, the dominant species is the second protonated species [H2 L]^3-. When pH=8.1, the concentration of [H2 L]^3- is the maximum (86.5%). […] When pH=9.9, the concentration of [HL]^4- is the maximum (71.6%). In the pH range greater than 12, the dominant species is the deprotonated species [L]^5-. In the pH range less than 2, the dominant species is the totally protonated species [H5 L].
When pH=2.8, the concentration of [H4 L]^- is the maximum (45.9%). In the pH 3.5-7.5 range, the dominant species is the third protonated species [H3 L]^2-. When pH=5.2, the concentration of [H3 L]^2- is the maximum (99.0%). In the pH 8-9.5 range, the dominant species is the second protonated species [H2 L]^3-. When pH=8.6, the concentration of [H2 L]^3- is the maximum (78.8%). In the pH 9.5-11 range, the dominant species is the first protonated species [HL]^4-. When pH=10.1, the concentration of [HL]^4- is the maximum (67.2%). In the pH range greater than 12, the dominant species is the deprotonated species [L]^5-. In the pH range less than 2, the dominant species is the totally protonated species [H5 L].

Series [12] in a line: Thermodynamic and conditional stability constants of the Zn^2+ complexes (potentiometric titration, program BEST). To be noted: 25.0 ± 0.1° C., aqueous Me4 NNO3, I = 0.10 mol dm^-3. The series is classed as physicochemical. As to the method: as §1, §2, §3, §4, §5, §6
A short description of series [13]: Protonation constants of the organic ligands (potentiometric titration, program PKAS). The series is classed as physicochemical. To be noted: for pKa: aqueous me4nno3, 25.0 ± 0.1° C., aqueous Me4 NNO3, I = 0.10 mol dm^-3. The procedure: The ionic strength was 0.10 mol dm^-3 Me4 NNO3 ((CH3)4 NNO3). […] The titrant used was 0.1 mol dm^-3 NaOH with a titration amount of 0.005 ml/time.

Series [14] in a line: Thermodynamic and conditional stability constants of the Ca^2+ complexes (potentiometric titration, program BEST). The series is classed as physicochemical. To be noted: 25.0 ± 0.1° C., aqueous Me4 NNO3, I = 0.10 mol dm^-3. The procedure:
as §1, §2, §3, §4, §5, §6

“And” between values parts separate entries of the source, which are not always exact repeats. Identical values can stand only once. Like-named read-outs stand apart in the source and are kept apart here.

Take `O=C(O)CN1CCCN(CC(=O)O)CCN(CC(=O)O)CCN(CC(=O)O)CCN(CC(=O)O)CCCN(CC(=O)O)CCN(CC(=O)O)CCN(CC(=O)O)CC1` [H8 HEC, 1,4,7,10,14,17,20,23-octaazacyclohexacosane-1,4,7,10,14,17,20,23-octaacetic acid]: the “water solubility of the bimetallic lanthanide complex” value in series [1] is “higher water solubility”.

For `CNC(=O)CN(CCN(CCN(CC(=O)[O-])CC(=O)NC)CC(=O)[O-])CC(=O)[O-].[Gd+3]` [[Gd(DTPA-BMA)], diethylenetriamine pentaacetic acid bis(methylamide)-gadolinium(III)], the “Relaxivity R1” value in series [2] is 3.74 dm^3 mmol^-1 s^-1 and 3.74 ± 0.05 dm^3 mmol^-1 s^-1. Besides, the “modified selectivity constant log K sel'” value in series [3] was found to be 9.03. For the same compound, the “conditional stability constant (log Kcond)” value (pH 4.0) is recorded as 11.25. Further, the “stability constant under physiological conditions (pH 7.4)” value (pH 7.4) came out at 16.95. Also, the LD50 (usually the dose expected to kill half of the subjects tested) in [4] is listed as 14.8 mmol/kg. For the same compound, the “inner-sphere water molecule by X-ray single crystal analysis” value in series [5] (X-ray single crystal analysis) was “one”.

In the case of `O=C(O)CN(CCN(CC(=O)O)CC(=O)O)CCN(CC(=O)O)CC(=O)O` [DTPA, diethylenetriaminepentaacetic acid, reference compound], the “conditional stability constant log KGdL'” value (pH 7.4) is recorded as 18.14. Besides, in [6], the “pM (Zn^2+)” value amounted to 13.39. The “pM (Cu^2+)” value in [7] came out at 16.06. For the same compound, in series [8], the “pM (Gd^3+)” value is given as 17.14. In series [9], the “pM (Ca^2+)” value is 5.45.

On to `O=C(O)CN1CCN(CC(=O)O)CCN(CC(=O)O)CCN(CC(=O)O)CCN(CC(=O)O)CCN(CC(=O)O)CCN(CC(=O)O)CCN(CC(=O)O)CC1` [H8 OTEC, 1,4,7,10,13,16,19,22-octaazacyclotetracosane-1,4,7,10,13,16,19,22-octaacetic acid], for which the “water solubility of the bimetallic lanthanide complex” value in [1] is on record as “higher water solubility”.

Regarding `[Cl][Dy]([Cl])[Cl]` [DyCl3], in series [5] (^17 O-NMR, FIG. 11), the “slope of d.i.s. versus Dy(III) complex concentration” value is on record as -445.6.

For the compound `O=C([O-])CN1CCN(CC(=O)[O-])CCN(CC(=O)[O-])CCN(CC(=O)[O-])CC1.[Dy+3]` [[Dy(DOTA)]^-], the “q (inner-sphere water)” value in [5] (Dy(III)-induced ^17 O-NMR shift) turned out to be 0.8. Moreover, in series [5] (^17 O-NMR), the inner-sphere water molecules entry is listed as “only one”.

As for “N,N-bis(2-pyridylmethyl)diethylenetriamine-N,N',N"-triacetate-gadolinium(III) [[Gd(DTPA-BP)]]”, the LD50 in [4] is reported as 3.2 mmol/kg.

With `O=C(O)CN(CCCCN(CC(=O)O)CC(=O)O)CCCN(CC(=O)O)CC(=O)O` [TTEA, 3,7,12-tri(carboxymethyl)-3,7,12-triazatetradecanedioic acid], the “complexation with metal ions, in words” value is given as “very difficult to complex with metal ions”. For the same compound, in [10], the “log K [CuHL]/[CuL][H]” value was 9.5 and the “log K [CuL]/[Cu][L]” value stood at 17.33. Moreover, the “pM (Zn^2+)” value in [6] is on record as 13.08. In addition, in [7], the “pM (Cu^2+)” value is 12.63. In series [11], the “maximum concentration of first protonated species [HL]^4-” value came to 67.2%, the “maximum concentration of fourth protonated species [H4 L]^-” value is 45.9%, the “maximum concentration of second protonated species [H2 L]^3-” value is listed as 78.8% and the “maximum concentration of third protonated species [H3 L]^2-” value is 99.0%. In addition, in [11], the “pH of maximum concentration of [H2 L]^3-” value was determined as 8.6 pH, the “pH of maximum concentration of [H3 L]^2-” value turned out to be 5.2 pH, the “pH of maximum concentration of [H4 L]^-” value is on record as 2.8 pH and the “pH of maximum concentration of [HL]^4-” value stood at 10.1 pH. For the same compound, in series [11], the “pH range in which [H2 L]^3- is dominant” value is 8-9.5 pH, the “pH range in which [H3 L]^2- is dominant” value was 3.5-7.5 pH, the “pH range in which [H4 L]^- is dominant” value is on record as 2.5-3.5 pH and the “pH range in which [HL]^4- is dominant” value is 9.5-11 pH. Moreover, in series [11], the “pH range in which deprotonated species [L]^5- is dominant” value is listed as “greater than 12 pH” and the “pH range in which totally protonated species [H5 L] is dominant” value was “less than 2 pH”. Besides, in [12], the “log K [ZnHL]/[ZnL][H]” value is given as 4.7 and the “log K [ZnL]/[Zn][L]” value is on record as 19.91. Further, the “basicity, Σ PKa” value in series [13] stood at 30.90. In addition, the pKa in series [13] (read-out: first protonation constant log K1^H, [HL]/[L][H]) worked out at 10.7. Moreover, the pKa in series [13] (read-out: fourth protonation constant log K4^H, [H4 L]/[H3 L][H]) is 3.04. Moreover, in series [13] (read-out: second protonation constant log K2^H, [H2 L]/[HL][H]), the pKa amounted to 9.46. Further, the pKa in [13] (read-out: third protonation constant log K3^H, [H3 L]/[H2 L][H]) turned out to be 7.71. The “pM (Ca^2+)” value in [9] is 7.64. In [14], the “log K [CaHL]/[CaL][H]” value is on record as 8.2 and the “log K [CaL]/[Ca][L]” value came to 13.48.

For `[Cl][Gd]([Cl])[Cl]` [GdCl3, gadolinium chloride], in [4] (intravenously injected to animal bodies), the “LD50, intravenous, animal” value was 0.3 to 0.5 mmol/kg.
